Experimental data published in patent publication US20220144812A1, “QUINOLINE DERIVATIVES AND THEIR USE FOR THE TREATMENT OF CANCER” (Epizyme, Inc., priority 2019, published 2022).
Like-named read-outs stand apart in the source and are kept apart here.

Columns and labels:
EP300 (P300(1048-1664)) = target: T1, EP300 (P300(1048-1664)) (Homo sapiens, UniProt Q09472); assay: Biochemical assay for EP300, SAMDI; conditions: read-out: EP300 Biochemistry IC50
T1 construct: P300(1048-1664)
T1 sequence (Q09472 1048-1664): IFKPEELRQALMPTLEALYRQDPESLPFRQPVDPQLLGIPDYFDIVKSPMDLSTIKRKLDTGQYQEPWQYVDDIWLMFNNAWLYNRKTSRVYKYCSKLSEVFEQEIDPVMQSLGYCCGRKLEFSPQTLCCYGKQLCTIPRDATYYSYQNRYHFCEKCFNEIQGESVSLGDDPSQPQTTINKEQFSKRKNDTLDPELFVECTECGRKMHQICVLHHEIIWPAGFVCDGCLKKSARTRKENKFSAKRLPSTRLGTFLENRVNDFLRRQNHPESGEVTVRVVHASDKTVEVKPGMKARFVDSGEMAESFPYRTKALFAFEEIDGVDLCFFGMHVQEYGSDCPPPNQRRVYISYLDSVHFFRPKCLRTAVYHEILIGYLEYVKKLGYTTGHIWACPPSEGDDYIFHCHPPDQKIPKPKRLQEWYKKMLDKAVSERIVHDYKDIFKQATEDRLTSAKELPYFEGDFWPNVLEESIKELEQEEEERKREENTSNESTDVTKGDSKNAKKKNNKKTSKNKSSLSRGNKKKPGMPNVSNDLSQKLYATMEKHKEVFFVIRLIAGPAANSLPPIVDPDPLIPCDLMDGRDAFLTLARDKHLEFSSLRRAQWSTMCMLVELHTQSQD
From the text: The following example describes materials and methods relating to a biochemical assay for EP300. IC50 values (micromolar (μM)) are summarized in Table 1, Table 2, and Table 3 under the column labeled: “EP300 Biochemistry IC50 (micromolar).”

[1] = test system: H3K18Ac in HB-CLS-2 cells; assay: H3K18AC in-cell western (ICW) assay; assay type: cell-based; conditions: read-out: CREBBP ICW IC50
Outline: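 In-cell western: after methanol fixation, blocking, overnight 4° C anti-H3K18Ac staining, then 800CW secondary plus DRAQ5 for DNA content, integrated intensities were scanned at 800 and 700 nm. Before this, compound exposure lasted 2 hr at 37° C in HB-CLS-2 cells plated 16–24 hours earlier. Values expressed as IC50 (μM).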

647V cells = assay: High throughput proliferation (HTP) assay; assay type: cell-based; conditions: Homo sapiens, 647-V, read-out: CREBBP HTP IC50
Outline: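 Proliferation IC50 (micromolar) derived from a 7-day CellTiter-Glo viable-cell readout in 647V cells exposed, in triplicate, to rising compound concentrations; cells grown in DMEM plus 15% heat-inactivated FBS at 37° C under 5% CO2.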

CREBBP (1084-1701) = target: T2, CREBBP (1084-1701) (Homo sapiens, UniProt Q92793); assay: Biochemical assay for CREBBP (1084-1701), SAMDI; conditions: read-out: CREBBP Biochemistry IC50
T2 construct: measured in the following biochemical assay using CREBBP (1084-1701); purchased
T2 sequence (Q92793 1084-1701): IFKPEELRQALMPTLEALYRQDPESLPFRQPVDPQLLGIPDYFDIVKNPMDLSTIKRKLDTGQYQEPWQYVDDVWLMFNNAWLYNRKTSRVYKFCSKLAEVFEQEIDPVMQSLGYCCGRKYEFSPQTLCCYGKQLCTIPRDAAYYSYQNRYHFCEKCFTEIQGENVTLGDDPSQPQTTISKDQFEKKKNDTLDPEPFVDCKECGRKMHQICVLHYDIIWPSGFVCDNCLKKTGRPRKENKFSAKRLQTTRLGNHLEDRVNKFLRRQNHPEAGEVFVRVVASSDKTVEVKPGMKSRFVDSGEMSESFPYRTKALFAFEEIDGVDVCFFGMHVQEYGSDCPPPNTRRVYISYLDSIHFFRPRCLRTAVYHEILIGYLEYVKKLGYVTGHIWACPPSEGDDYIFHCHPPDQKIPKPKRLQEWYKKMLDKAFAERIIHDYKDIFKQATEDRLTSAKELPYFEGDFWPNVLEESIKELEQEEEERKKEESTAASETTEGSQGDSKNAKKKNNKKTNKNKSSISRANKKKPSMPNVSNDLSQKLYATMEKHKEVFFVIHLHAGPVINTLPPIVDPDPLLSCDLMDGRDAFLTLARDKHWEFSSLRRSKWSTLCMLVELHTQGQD
Outline: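 Acetyltransferase activity measured by SAMDI mass spectrometry after capture on biochip. Enzyme sat with compound 30 min at RT before acetyl-CoA and biotinylated H3 11-25 (K14R, K23R) peptide were added for 30 min at RT. Formic acid quench, bicarbonate neutralisation; IC50 values reported.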

Row | Compound | IC50 (EP300 (P300(1048-1664)); EP300, SAMDI) [nM] | IC50 ([1]; H3K18Ac in-cell western) [nM] | IC50 (647V cells; high throughput proliferation) [nM] | IC50 (CREBBP (1084-1701); SAMDI) [nM] | IC50 (EP300 (P300(1048-1664)); P300(1048-1664), Peptide #233, Ac-CoA, SAMDI mass spectrometry) [nM] | IC50 ([1]; 2 h, H3K18Ac in HB-CLS-2 cells, 2 hrs compound incubation) [nM] | IC50 (647V cells; 168 h, 647V cells, day 7, CellTiter-Glo) [nM] | IC50 (CREBBP (1084-1701); Peptide #233, Acetyl-CoA, SAMDI mass spectrometry) [nM]
1 | CCn1ncc(CN(C)C(=O)c2cc(-c3ccc(NCC(CN(C)C)OC)c(C)n3)nc3ccc(Cl)cc23)c1C (stereo not shown) [Compound 592] | 10.9 | 4500 | 7230 | 35.5 | – | – | – | –
2 | CCc1nc(-c2cc(C(=O)N(C)Cc3onc(CC)c3C)c3cc(COC)ccc3n2)ccc1NCCN(C)C [Compound 593] | 175 | 170 | 103 | 53.9 | – | – | – | –
3 | CCc1nc(-c2cc(C(=O)N(C)Cc3cnn(CC)c3C)c3cc(COC)ccc3n2)ccc1NCCNC [Compound 595] | 59.9 | 145 | 99.1 | 51.6 | – | – | – | –
4 | Cc1nc(-c2cc(C(=O)N(C)Cc3cnn(CC(F)(F)F)c3C)c3cc(Cl)ccc3n2)ccc1NCCN(C)C [Compound 597] | 28.5 | 72.6 | 78.7 | 36.2 | – | – | – | –
5 | Cc1nc(-c2cc(C(=O)N(C)Cc3cnc(C(F)(F)F)n3C)c3cc(Cl)ccc3n2)ccc1NCCN(C)C [Compound 598] | 282 | 316 | 283 | 105 | – | – | – | –
6 | CNCCNc1ccc(-c2cc(C(=O)N(C)Cc3onc(C4CC4)c3C)c3cc(Cl)ccc3n2)nc1C [Compound 599] | 1750 | 1600 | 1260 | 518 | – | – | – | –
7 | CCn1ncc(CN(C)C(=O)c2cc(-c3ccc(NC4CN(CC#N)C4)c(C)n3)nc3ccc(Cl)cc23)c1C [Compound 601] | 30.2 | 143 | 72.6 | 44.9 | – | – | – | –
8 | CCn1ncc(CN(C)C(=O)c2cc(-c3ccc(NC4CN(CC(F)(F)F)C4)c(C)n3)nc3ccc(Cl)cc23)c1C [Compound 603] | 20.3 | 174 | 253 | 48.7 | – | – | – | –
9 | CCn1ncc(CN(C)C(=O)c2cc(-c3ccc(NCC(O)CN(C)C)c(C)n3)nc3ccc(Cl)cc23)c1C (stereo not shown) [Compound 604] | 11.4 | 64.8 | 28.4 | 28.5 | – | – | – | –
10 | CCc1ncc(CN(C)C(=O)c2nc(-c3ccc(NCCN(C)C)nc3C)nc3ccc(Cl)cc23)n1C [Compound 605] | 3090 | 943 | 447 | 533 | – | – | – | –
11 | CCc1noc(C(C)N(C)C(=O)c2nc(-c3ccc(NCCN(C)C)c(C)c3)nc3ccc(Cl)cc23)c1C (stereo not shown) [Compound 606] | 14 | 294 | 80.7 | 30.3 | – | – | – | –
12 | CCn1ncc([C@H](C)N(C)C(=O)c2cc(-c3ccc(NCCNC)c(C)n3)nc3ccc(Cl)cc23)c1C [Compound 607] | 3380 | 3270 | 1970 | 6510 | – | – | – | –
13 | CCn1ncc([C@@H](C)N(C)C(=O)c2cc(-c3ccc(NCCNC)c(C)n3)nc3ccc(Cl)cc23)c1C [Compound 608] | 26.4 | 107 | 39 | 92.8 | – | – | – | –
14 | CCn1ncc([C@@H](C)N(C)C(=O)c2cc(-c3ccc(NCCN(C)C)c(C)n3)nc3ccc(Cl)cc23)c1C [Compound 610] | 20.9 | 85 | 37.8 | 59.6 | – | – | – | –
15 | CCn1ncc(CN(C)C(=O)c2nc(-c3cc(C)nc(NCCOC)c3)nc3ccc(Cl)cc23)c1C [Compound 611] | 493 | 345 | 312 | 73.6 | – | – | – | –
16 | CCn1ncc(CN(C)C(=O)c2nc(-c3cc4c(NC)[nH]nc4cc3C)nc3ccc(C)cc23)c1C [Compound 612] | 6.6 | 46.3 | 40.9 | 18 | – | – | – | –
17 | CCc1noc(CN(C)C(=O)c2cc(-c3ccc(NC4CN(C)C4)c(C)n3)nc3ccc(Cl)cc23)c1C [Compound 613] | 11.2 | 53.8 | 51.8 | 19.1 | – | – | – | –

Row | Compound | IC50 (EP300 (P300(1048-1664)); EP300, SAMDI) [nM] | IC50 ([1]; H3K18Ac in-cell western) [nM] | IC50 (647V cells; high throughput proliferation) [nM] | IC50 (CREBBP (1084-1701); SAMDI) [nM] | IC50 (EP300 (P300(1048-1664)); P300(1048-1664), Peptide #233, Ac-CoA, SAMDI mass spectrometry) [nM] | IC50 ([1]; 2 h, H3K18Ac in HB-CLS-2 cells, 2 hrs compound incubation) [nM] | IC50 (647V cells; 168 h, 647V cells, day 7, CellTiter-Glo) [nM] | IC50 (CREBBP (1084-1701); Peptide #233, Acetyl-CoA, SAMDI mass spectrometry) [nM]
18 | CCn1ncc(CN(C)C(=O)c2nc(-c3cc4c(NC)[nH]nc4cc3C)nc3ccc(C4CC4)cc23)c1C [Compound 614] | 8.7 | 32.1 | 34.6 | 22.9 | – | – | – | –
19 | CCc1noc(CN(C)C(=O)c2nc(-c3cc4c(NC)[nH]nc4cc3C)nc3ccc(Cl)cc23)c1C [Compound 615] | 3.1 | 29.1 | 19.5 | 9.75 | – | – | – | –
20 | CNc1[nH]nc2ccc(-c3nc(C(=O)N(C)Cc4cnc(C5CC5)n4C)c4cc(COC)ccc4n3)cc12 [Compound 616] | 14.4 | 102 | 160 | 25.1 | – | – | – | –
21 | CNc1[nH]nc2cc(C)c(-c3nc(C(=O)N(C)Cc4cnc(C5CC5)n4C)c4cc(COC)ccc4n3)cc12 [Compound 617] | 13.3 | 87.6 | 84.1 | 40.8 | – | – | – | –
22 | CCn1ncc(CN(C)C(=O)c2nc(-c3cc(C(F)(F)F)c4[nH]nc(N)c4c3)nc3ccc(Cl)cc23)c1C [Compound 618] | 285 | 248 | 701 | 53.7 | – | – | – | –
23 | CCn1ncc(CN(C)C(=O)c2cc(-c3ccc(NCCN(C)C)c(C(F)(F)F)n3)nc3ccc(Cl)cc23)c1C [Compound 619] | 14.5 | 59.9 | 32.5 | 23.8 | – | – | – | –
24 | CNc1[nH]nc2cc(C)c(-c3nc(C(=O)N(C)Cc4cnn(CC(F)(F)F)c4C)c4cc(Cl)ccc4n3)cc12 [Compound 620] | 12.3 | 67.2 | 77.7 | 25.1 | – | – | – | –
25 | CCn1ncc(CN(C)C(=O)c2nc(-c3cnc4n[nH]c(N)c4c3)nc3ccc(Cl)cc23)c1C [Compound 621] | 397 | 222 | 391 | 216 | – | – | – | –
26 | CCc1noc(C(C)N(C)C(=O)c2nc(-c3cc4c(NC)[nH]nc4cc3C)nc3ccc(Cl)cc23)c1C (stereo not shown) [Compound 622] | 383 | 1320 | 2300 | 107 | – | – | – | –
27 | CCn1ncc(CN(C)C(=O)c2nc(-c3cc(C(F)(F)F)c4[nH]nc(NC)c4c3)nc3ccc(Cl)cc23)c1C [Compound 623] | 28.3 | 230 | 711 | 43.9 | – | – | – | –
28 | CCn1ncc(CN(C)C(=O)c2nc(-c3cc4c(NC)noc4cc3C)nc3ccc(Cl)cc23)c1C [Compound 624] | 9.2 | 113 | 284 | 18.3 | – | – | – | –
29 | CCn1ncc(CN(C)C(=O)c2cc(-c3ccc(NCCS(C)(=O)=O)c(C)n3)nc3ccc(Cl)cc23)c1C [Compound 625] | 11.3 | 114 | 163 | 19.2 | – | – | – | –
30 | Cc1nc(-c2cc(C(=O)N(C)Cc3cn(C)c(CC(F)(F)F)n3)c3cc(Cl)ccc3n2)ccc1NCCN(C)C [Compound 626] | 4240 | 3210 | 5780 | 3310 | – | – | – | –
31 | CCc1ncc(CN(C)C(=O)c2cc(-c3cc(C(=O)NC)n(C)n3)nc3ccc(COC)cc23)n1C [Compound 627] | 15.6 | 271 | 506 | 49.6 | – | – | – | –
32 | CCn1ncc(CN(C)C(=O)c2cc(-c3ccc(NCC4CN(C)CCO4)c(C)n3)nc3ccc(Cl)cc23)c1C (stereo not shown) [Compound 628] | 1730 | 3300 | 997 | 3630 | – | – | – | –
33 | CCc1ncc(CN(C)C(=O)c2cc(-c3cc(-c4ncc[nH]4)n(C)n3)nc3ccc(COC)cc23)n1C [Compound 629] | 16.8 | 256 | 292 | 34 | – | – | – | –
34 | CCc1ncc(CN(C)C(=O)c2nc(-c3cc(-c4ncc[nH]4)n(C)n3)nc3ccc(Cl)cc23)n1C [Compound 631] | – | – | – | – | 8.8 | 125 | 194 | 16.7
